Test results as given in ChEMBL document CHEMBL5724914, “Linking interpersonal differences in gut microbiota composition and drug biotransformation activity” (2024).

Assays:
[1] = (§1) The drug is tested on Z-028 corresponding to mouse gut metagenome with ENA study accession number: PRJEB37062 and ENA sample accession number: ERS12561827 for biotransformation under anaerobic condition. The drug concentrations were measured over 9 timepoints collected between 0 and 24 hours of incubation by liquid-chromatography-coupled mass spectrometry (LC–MS); settings: 2 µM
[2] = as §1, with “WLS-370” for “Z-028”, “human” for “mouse”, “ERS12561793” for “ERS12561827”; settings: 2 µM
[3] = as §1, with “WLS-006” for “Z-028”, “human” for “mouse”, “ERS12561741” for “ERS12561827”; settings: 2 µM
[4] = human gut metagenome, 24 h, 2 µM
[5] = human gut metagenome, 24 h, 2 µM; remark: listed apart in the source
[6] = human gut metagenome, 24 h, 2 µM; remark: listed apart in the source
[7] = human gut metagenome, 24 h, 2 µM; remark: listed apart in the source
[8] = human gut metagenome, 24 h, 2 µM; remark: listed apart in the source
[9] = human gut metagenome, 24 h, 2 µM; remark: listed apart in the source
Also: call rule not given here.

| SMILES | Bacterial Biotransformation [1] | Bacterial Biotransformation [2] | Bacterial Biotransformation [3] | Bacterial Biotransformation [4] | Bacterial Biotransformation [5] | Bacterial Biotransformation [6] | Bacterial Biotransformation [7] | Bacterial Biotransformation [8] | Bacterial Biotransformation [9] |
| --- | --- | --- | --- | --- | --- | --- | --- | --- | --- |
| COc1ccc2c(c1)c(CC(=O)O)c(C)n2C(=O)c1ccc(Cl)cc1 [INDOMETHACIN] | Compound NOT metabolized | Compound metabolized | Compound metabolized | Compound metabolized | Compound metabolized | Compound NOT metabolized | Compound metabolized | Compound NOT metabolized | Compound NOT metabolized |
| CC(CCc1ccccc1)NCC(O)c1ccc(O)c(C(N)=O)c1 (stereo unspecified) [LABETALOL] | Compound NOT metabolized | Compound NOT metabolized | Compound NOT metabolized | Compound NOT metabolized | Compound NOT metabolized | Compound NOT metabolized | Compound NOT metabolized | Compound NOT metabolized | Compound NOT metabolized |
| Nc1nnc(-c2cccc(Cl)c2Cl)c(N)n1 [LAMOTRIGINE] | Compound NOT metabolized | Compound NOT metabolized | Compound NOT metabolized | Compound NOT metabolized | Compound NOT metabolized | Compound NOT metabolized | Compound NOT metabolized | Compound NOT metabolized | Compound metabolized |
| OC(c1cc(C(F)(F)F)nc2c(C(F)(F)F)cccc12)C1CCCCN1 (stereo unspecified) [MEFLOQUINE] | Compound NOT metabolized | Compound metabolized | Compound metabolized | Compound metabolized | Compound NOT metabolized | Compound metabolized | Compound metabolized | Compound NOT metabolized | Compound metabolized |
| CC(=O)O[C@]1(C(C)=O)CC[C@H]2[C@@H]3C=C(C)C4=CC(=O)CC[C@]4(C)[C@H]3CC[C@@]21C [MEGESTROL ACETATE] | Compound metabolized | Compound metabolized | Compound metabolized | Compound metabolized | Compound metabolized | Compound metabolized | Compound metabolized | Compound metabolized | Compound metabolized |
| CC12CC3CC(C)(C1)CC(N)(C3)C2 [MEMANTINE] | Compound NOT metabolized | Compound NOT metabolized | Compound NOT metabolized | Compound NOT metabolized | Compound NOT metabolized | Compound NOT metabolized | Compound NOT metabolized | Compound NOT metabolized | Compound NOT metabolized |
| Cc1cc(C)cc(OCC2CNC(=O)O2)c1 (stereo unspecified) [METAXALONE] | Compound NOT metabolized | Compound metabolized | Compound metabolized | Compound metabolized | Compound metabolized | Compound metabolized | Compound metabolized | Compound NOT metabolized | Compound metabolized |
| COC(=O)C(c1ccccc1)C1CCCCN1 (stereo unspecified) [METHYLPHENIDATE] | Compound NOT metabolized | Compound NOT metabolized | Compound NOT metabolized | Compound NOT metabolized | Compound NOT metabolized | Compound NOT metabolized | Compound NOT metabolized | Compound NOT metabolized | Compound NOT metabolized |
| CN1CCN2c3ccccc3Cc3ccccc3C2C1 (stereo unspecified) [MIANSERIN] | Compound NOT metabolized | Compound NOT metabolized | Compound NOT metabolized | Compound NOT metabolized | Compound NOT metabolized | Compound NOT metabolized | Compound NOT metabolized | Compound NOT metabolized | Compound metabolized |
| CC#C[C@]1(O)CC[C@H]2[C@@H]3CCC4=CC(=O)CCC4=C3[C@@H](c3ccc(N(C)C)cc3)C[C@@]21C [MIFEPRISTONE] | Compound NOT metabolized | Compound NOT metabolized | Compound metabolized | Compound NOT metabolized | Compound NOT metabolized | Compound NOT metabolized | Compound NOT metabolized | Compound NOT metabolized | Compound metabolized |
| CC(C)(C)NCC(O)COc1cccc2c1CC(O)C(O)C2 (stereo unspecified) [NADOLOL] | Compound NOT metabolized | Compound NOT metabolized | Compound NOT metabolized | Compound NOT metabolized | Compound NOT metabolized | Compound NOT metabolized | Compound NOT metabolized | Compound NOT metabolized | Compound metabolized |
| CC(C)[C@H]1CC[C@H](C(=O)N[C@H](Cc2ccccc2)C(=O)O)CC1 [NATEGLINIDE] | Compound NOT metabolized | Compound metabolized | Compound metabolized | Compound metabolized | Compound metabolized | Compound metabolized | Compound metabolized | Compound NOT metabolized | Compound metabolized |
| CN(C)C(=O)Oc1cccc([N+](C)(C)C)c1.[Br-] [NEOSTIGMINE BROMIDE] | Compound NOT metabolized | Compound NOT metabolized | Compound NOT metabolized | Compound NOT metabolized | Compound NOT metabolized | Compound NOT metabolized | Compound NOT metabolized | Compound NOT metabolized | Compound NOT metabolized |
| Cc1ccccc1C(OCCN(C)C)c1ccccc1.O=C(O)CC(O)(CC(=O)O)C(=O)O (stereo unspecified) [ORPHENADRINE CITRATE] | Compound NOT metabolized | Compound NOT metabolized | Compound metabolized | Compound NOT metabolized | Compound NOT metabolized | Compound NOT metabolized | Compound NOT metabolized | Compound NOT metabolized | Compound metabolized |
| CC(=O)O[C@H]1C(=O)[C@@]2(C)[C@H]([C@H](OC(=O)c3ccccc3)[C@]3(O)C[C@H](OC(=O)[C@H](O)[C@@H](NC(=O)c4ccccc4)c4ccccc4)C(C)=C1C3(C)C)[C@]1(OC(C)=O)CO[C@@H]1C[C@@H]2O [PACLITAXEL] | Compound metabolized | Compound NOT metabolized | Compound metabolized | Compound NOT metabolized | Compound NOT metabolized | Compound metabolized | Compound NOT metabolized | Compound NOT metabolized | Compound metabolized |
| COc1ccc(Cc2nccc3cc(OC)c(OC)cc23)cc1OC [PAPAVERINE] | Compound NOT metabolized | Compound metabolized | Compound NOT metabolized | Compound metabolized | Compound metabolized | Compound metabolized | Compound NOT metabolized | Compound NOT metabolized | Compound metabolized |
| CC(=O)CCCCn1c(=O)c2c(ncn2C)n(C)c1=O [PENTOXIFYLLINE] | Compound NOT metabolized | Compound NOT metabolized | Compound NOT metabolized | Compound NOT metabolized | Compound NOT metabolized | Compound NOT metabolized | Compound NOT metabolized | Compound NOT metabolized | Compound metabolized |
| CCCN1C[C@H](CSC)C[C@@H]2c3cccc4[nH]cc(c34)C[C@H]21.CS(=O)(=O)O [PERGOLIDE MESYLATE] | Compound NOT metabolized | Compound metabolized | Compound NOT metabolized | Compound NOT metabolized | Compound NOT metabolized | Compound NOT metabolized | Compound NOT metabolized | Compound NOT metabolized | Compound NOT metabolized |
| CC(C)(C)N.CCC[C@H](N[C@@H](C)C(=O)N1[C@H](C(=O)O)C[C@@H]2CCCC[C@@H]21)C(=O)OCC [PERINDOPRIL ERBUMINE] | Compound NOT metabolized | Compound metabolized | Compound metabolized | Compound NOT metabolized | Compound NOT metabolized | Compound NOT metabolized | Compound NOT metabolized | Compound metabolized | Compound metabolized |
